Measured values as given in ChEMBL document CHEMBL5550116, “Discovery of novel macrocyclic derivatives as potent and selective cyclin-dependent kinase 2 inhibitors” (Bioorg Med Chem, 2024).
One block for each molecule: values may come before it. Active and inactive are the calls of the source. The calls are words filed in the database; no cut-off is given here.

Key:
[1] = target: Cyclin-dependent kinase 5/CDK5 activator 1 (Homo sapiens, UniProt Q00535); assay: (§1) Inhibition of human CDK5/p25NCK using histone H1 as substrate preincubated for 10 mins followed by substrate and ATP addition and measured after 60 mins by ADP-Glo reagent based microplate reader assay; format: protein-complex assay
[2] = target: Cyclin-dependent kinase 2/cyclin E1 (Homo sapiens, UniProt P24941); assay: as §1, with “of full length N-terminal GST-tagged” for “of”, “CDK2 (1 to 298 residues)/cyclin E1 (1 to 410 residues) expressed in Sf21 cells” for “CDK5/p25NCK”
[3] = system: MKN-1; assay: Antiproliferative activity against human MKN-1 cells incubated for 5 days by CCK-8 assay; format: functional, cell-based; conditions: MKN-1, 120 h
[4] = Metabolic stability in mouse liver microsomes assessed as half life at 1 uM preincubated with compound for 10 mins followed by beta-NADPH addition measured upto 60 mins by LC-MS/MS analysis; format: ADME, Microsome; conditions: time < 70 min
[5] = Clearance in CD1 mouse plasma at 1 mg/kg, iv measured upto 24 hrs by LC-MS/MS analysis; format: ADME, organism-based
[6] = Metabolic stability in human liver microsomes assessed as half life at 1 uM preincubated with compound for 10 mins followed by beta-NADPH addition measured upto 60 mins by LC-MS/MS analysis; format: ADME, Microsome; conditions: time < 70 min
[7] = system: MKN-1; assay: Induction of cell cycle arrest in human MKN-1 cells assessed as accumulation of cells at G0/G1 phase at 111.1 to 333.3 nM incubated for 24 hrs by PI staining based flow cytometry analysis; format: functional; conditions: dose 111.1-333.3 nM
[8] = system: MKN-1; assay: Induction of cell cycle arrest in human MKN-1 cells assessed as reduction in G2/M phase cells at 111.1 to 333.3 nM incubated for 24 hrs by PI staining based flow cytometry analysis; format: functional; conditions: dose 111.1-333.3 nM
[9] = target: Cyclin-dependent kinase 2 (Homo sapiens) (UniProt P24941); assay: Inhibition of CDK2 in human MKN-1 cells assessed as reduction in Rb phosphorylation at Ser807/11 incubated for 24 hrs by Western blotting analysis; format: cell-based; conditions: dose 37-3000 nM
[10] = Drug uptake in CD1 mouse plasma at 10 mg/kg, po measured upto 24 hrs by LC-MS/MS analysis; format: ADME, organism-based; conditions: in vivo
[11] = target: Cyclin-dependent kinase 2 (Homo sapiens) (UniProt P24941); assay: Inhibition of CDK2 in human MKN-1 cells assessed as reduction in Rb phosphorylation at Ser780 incubated for 24 hrs by Western blotting analysis; format: cell-based; conditions: dose 37-3000 nM
[12] = target: Cyclin-dependent kinase 5 (Homo sapiens) (UniProt Q00535); assay: Inhibition of CDK5 (unknown origin) at 1 uM
[13] = target: Cyclin-dependent kinase 13 (Homo sapiens) (UniProt Q14004); assay: Inhibition of CDK13 (unknown origin) at 1 uM
[14] = target: Cyclin-dependent kinase 12 (Homo sapiens) (UniProt Q9NYV4); assay: Inhibition of CDK12 (unknown origin) at 1 uM
[15] = target: Cyclin-dependent kinase 9 (Homo sapiens) (UniProt P50750); assay: Inhibition of CDK9 (unknown origin) at 1 uM
[16] = target: Cyclin-dependent kinase 7 (Homo sapiens) (UniProt P50613); assay: Inhibition of CDK7 (unknown origin) at 1 uM
[17] = target: Cyclin-dependent kinase 1 (Homo sapiens) (UniProt P06493); assay: Inhibition of CDK1 (unknown origin) at 1 uM
[18] = organism: Homo sapiens; assay: Inhibition of CDK1/cyclin A2 (unknown origin) at 100 nM by ADP-Glo assay
[19] = target: CDK12/Cyclin K (Homo sapiens) (UniProt O75909+Q9NYV4); assay: Inhibition of CDK12/Cyclin K (unknown origin) at 100 nM by HTRF assay; format: protein-complex assay
[20] = target: CDK9/cyclin T1 (Homo sapiens, UniProt P50750); assay: Inhibition of full-length recombinant N-terminal GST-tagged human CDK9 (1 to 372 residues)/His-tagged cyclinT1 (1 to 726 residues) expressed in baculovirus expression system using histone H1 as substrate preincubated for 10 mins followed by substrate and ATP addition and measured after 60 mins by ADP-Glo reagent based microplate reader assay
[21] = target: CDK7/Cyclin H/MNAT1 (Homo sapiens, UniProt P50613); assay: Inhibition of recombinant human His-tagged CDK7/cyclin H/MNAT1 expressed in baculovirus expression system using histone H1 as substrate preincubated for 10 mins followed by substrate and ATP addition and measured after 60 mins by ADP-Glo reagent based microplate reader assay
CDK7/Cyclin H/MNAT1, sequence (P51946 whole entry): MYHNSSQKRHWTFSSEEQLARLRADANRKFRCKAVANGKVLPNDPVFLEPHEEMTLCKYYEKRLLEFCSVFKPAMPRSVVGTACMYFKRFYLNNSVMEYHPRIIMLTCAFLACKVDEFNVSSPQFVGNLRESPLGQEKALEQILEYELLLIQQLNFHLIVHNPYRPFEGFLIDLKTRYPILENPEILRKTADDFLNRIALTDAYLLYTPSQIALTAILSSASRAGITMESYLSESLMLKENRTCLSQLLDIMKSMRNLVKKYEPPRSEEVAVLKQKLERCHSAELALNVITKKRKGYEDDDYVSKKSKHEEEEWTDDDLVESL
CDK7/Cyclin H/MNAT1, sequence (P50613 whole entry): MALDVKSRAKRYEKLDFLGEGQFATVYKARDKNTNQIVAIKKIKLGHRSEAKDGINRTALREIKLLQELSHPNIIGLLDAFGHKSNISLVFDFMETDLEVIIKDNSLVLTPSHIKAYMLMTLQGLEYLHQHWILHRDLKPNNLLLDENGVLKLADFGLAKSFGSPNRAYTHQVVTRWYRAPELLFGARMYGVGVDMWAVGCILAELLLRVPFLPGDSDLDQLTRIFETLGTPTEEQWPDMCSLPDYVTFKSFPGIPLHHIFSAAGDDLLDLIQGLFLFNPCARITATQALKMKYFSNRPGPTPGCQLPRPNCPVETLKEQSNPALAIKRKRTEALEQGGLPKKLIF
CDK7/Cyclin H/MNAT1, sequence (P51948 whole entry, further chain): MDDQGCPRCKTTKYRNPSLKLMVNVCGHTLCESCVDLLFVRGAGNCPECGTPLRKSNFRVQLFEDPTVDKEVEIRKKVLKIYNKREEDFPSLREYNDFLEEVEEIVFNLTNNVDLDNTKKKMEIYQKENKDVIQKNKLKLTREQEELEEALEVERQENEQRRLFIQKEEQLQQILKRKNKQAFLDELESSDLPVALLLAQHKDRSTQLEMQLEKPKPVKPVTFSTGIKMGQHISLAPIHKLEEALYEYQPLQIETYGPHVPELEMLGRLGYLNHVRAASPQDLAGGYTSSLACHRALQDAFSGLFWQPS

Cyclin-dependent kinase 5/CDK5 activator 1, sequence (Q00535 whole entry, the tested form may be a part): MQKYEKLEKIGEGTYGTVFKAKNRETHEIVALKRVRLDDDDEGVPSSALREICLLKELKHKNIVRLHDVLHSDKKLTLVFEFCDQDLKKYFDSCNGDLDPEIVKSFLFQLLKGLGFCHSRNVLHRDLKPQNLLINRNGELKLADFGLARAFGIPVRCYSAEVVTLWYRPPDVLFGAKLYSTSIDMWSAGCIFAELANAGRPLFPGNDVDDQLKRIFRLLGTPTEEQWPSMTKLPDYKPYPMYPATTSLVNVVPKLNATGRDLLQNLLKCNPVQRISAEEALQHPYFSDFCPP
Cyclin-dependent kinase 5/CDK5 activator 1, sequence (Q15078 whole entry, further chain, the tested form may be a part): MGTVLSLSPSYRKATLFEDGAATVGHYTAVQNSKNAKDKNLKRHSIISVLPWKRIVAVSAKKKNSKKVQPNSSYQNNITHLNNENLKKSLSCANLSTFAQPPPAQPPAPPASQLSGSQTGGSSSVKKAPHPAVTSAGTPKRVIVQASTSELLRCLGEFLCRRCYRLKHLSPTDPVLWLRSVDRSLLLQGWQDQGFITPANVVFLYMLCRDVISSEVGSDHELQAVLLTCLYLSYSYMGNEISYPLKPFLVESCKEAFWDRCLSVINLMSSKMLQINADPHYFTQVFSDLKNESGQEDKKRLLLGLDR
CDK9/cyclin T1, sequence (O60563 whole entry, the tested form may be a part): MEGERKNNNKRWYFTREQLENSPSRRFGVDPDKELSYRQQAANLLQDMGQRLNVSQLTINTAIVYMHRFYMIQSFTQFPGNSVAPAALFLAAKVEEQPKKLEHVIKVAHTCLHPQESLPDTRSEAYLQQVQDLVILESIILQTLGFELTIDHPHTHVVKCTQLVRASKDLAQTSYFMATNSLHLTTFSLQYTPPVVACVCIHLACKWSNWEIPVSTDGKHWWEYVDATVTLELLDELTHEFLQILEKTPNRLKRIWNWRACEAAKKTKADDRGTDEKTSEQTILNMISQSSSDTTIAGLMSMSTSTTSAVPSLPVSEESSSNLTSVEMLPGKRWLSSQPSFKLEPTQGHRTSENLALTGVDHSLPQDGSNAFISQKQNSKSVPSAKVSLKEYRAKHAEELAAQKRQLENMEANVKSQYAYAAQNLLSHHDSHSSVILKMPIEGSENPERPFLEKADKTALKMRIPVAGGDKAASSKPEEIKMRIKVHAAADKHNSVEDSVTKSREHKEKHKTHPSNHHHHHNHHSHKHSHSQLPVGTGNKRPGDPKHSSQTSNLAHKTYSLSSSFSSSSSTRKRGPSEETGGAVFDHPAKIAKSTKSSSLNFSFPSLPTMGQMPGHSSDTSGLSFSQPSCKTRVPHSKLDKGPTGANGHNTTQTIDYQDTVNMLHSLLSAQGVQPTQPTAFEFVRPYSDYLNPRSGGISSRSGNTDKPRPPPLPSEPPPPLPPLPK
CDK9/cyclin T1, sequence (P50750 whole entry, the tested form may be a part): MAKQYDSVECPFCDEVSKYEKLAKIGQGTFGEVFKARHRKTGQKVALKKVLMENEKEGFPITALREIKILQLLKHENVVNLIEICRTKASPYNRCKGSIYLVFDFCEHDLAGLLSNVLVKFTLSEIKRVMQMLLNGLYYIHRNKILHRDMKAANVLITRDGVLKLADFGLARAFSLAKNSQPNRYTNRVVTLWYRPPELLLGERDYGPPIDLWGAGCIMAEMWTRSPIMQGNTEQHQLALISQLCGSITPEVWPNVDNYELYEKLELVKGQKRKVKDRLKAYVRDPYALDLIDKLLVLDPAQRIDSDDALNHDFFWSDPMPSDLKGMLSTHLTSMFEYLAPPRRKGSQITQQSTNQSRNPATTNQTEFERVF
Cyclin-dependent kinase 13 (Homo sapiens), sequence (Q14004 whole entry, looked up): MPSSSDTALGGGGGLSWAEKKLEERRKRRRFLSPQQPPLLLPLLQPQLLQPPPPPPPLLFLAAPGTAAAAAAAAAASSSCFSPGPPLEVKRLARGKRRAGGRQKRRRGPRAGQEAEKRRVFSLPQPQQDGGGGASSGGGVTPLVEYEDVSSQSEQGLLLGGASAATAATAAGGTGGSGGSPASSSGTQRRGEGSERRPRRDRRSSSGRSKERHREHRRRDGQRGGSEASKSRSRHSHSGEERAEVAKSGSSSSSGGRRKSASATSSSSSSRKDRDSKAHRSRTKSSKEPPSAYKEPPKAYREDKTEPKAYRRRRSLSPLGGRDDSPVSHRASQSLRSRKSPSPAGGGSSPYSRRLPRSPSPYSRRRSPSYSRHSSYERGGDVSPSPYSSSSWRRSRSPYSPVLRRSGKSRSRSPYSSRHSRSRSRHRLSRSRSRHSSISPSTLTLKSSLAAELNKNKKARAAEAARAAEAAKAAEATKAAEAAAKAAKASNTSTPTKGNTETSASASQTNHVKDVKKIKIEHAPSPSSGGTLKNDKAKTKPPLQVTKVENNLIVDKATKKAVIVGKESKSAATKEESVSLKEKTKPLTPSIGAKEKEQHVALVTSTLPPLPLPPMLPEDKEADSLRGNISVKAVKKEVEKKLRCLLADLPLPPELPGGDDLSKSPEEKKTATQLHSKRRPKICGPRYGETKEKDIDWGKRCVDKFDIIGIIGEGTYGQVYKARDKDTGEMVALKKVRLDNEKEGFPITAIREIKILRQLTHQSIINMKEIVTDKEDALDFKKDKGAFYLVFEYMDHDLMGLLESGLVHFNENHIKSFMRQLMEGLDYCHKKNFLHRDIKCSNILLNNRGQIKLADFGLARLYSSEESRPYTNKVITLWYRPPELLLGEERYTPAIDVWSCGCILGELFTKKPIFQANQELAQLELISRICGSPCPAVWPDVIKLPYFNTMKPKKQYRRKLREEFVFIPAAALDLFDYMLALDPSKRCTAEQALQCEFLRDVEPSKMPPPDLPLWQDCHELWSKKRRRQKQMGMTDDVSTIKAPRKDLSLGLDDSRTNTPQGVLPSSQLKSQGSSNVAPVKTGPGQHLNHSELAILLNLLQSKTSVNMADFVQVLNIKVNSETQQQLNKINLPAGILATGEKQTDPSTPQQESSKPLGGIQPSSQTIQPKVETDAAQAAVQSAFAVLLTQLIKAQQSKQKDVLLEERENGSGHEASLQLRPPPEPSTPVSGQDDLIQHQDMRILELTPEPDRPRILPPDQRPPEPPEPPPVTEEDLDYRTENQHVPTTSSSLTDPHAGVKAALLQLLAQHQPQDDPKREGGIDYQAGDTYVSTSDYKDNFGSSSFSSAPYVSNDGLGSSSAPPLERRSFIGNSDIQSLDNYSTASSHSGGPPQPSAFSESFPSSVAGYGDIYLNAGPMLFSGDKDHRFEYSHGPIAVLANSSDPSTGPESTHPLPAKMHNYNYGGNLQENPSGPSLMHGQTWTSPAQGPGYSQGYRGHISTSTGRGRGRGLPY
Cyclin-dependent kinase 9 (Homo sapiens), sequence (P50750 whole entry): as the sequence (P50750 whole entry, the tested form may be a part) above
Cyclin-dependent kinase 5 (Homo sapiens), sequence (Q00535 whole entry, looked up): as the sequence (Q00535 whole entry, the tested form may be a part) above
Cyclin-dependent kinase 1 (Homo sapiens), sequence (P06493 whole entry, looked up): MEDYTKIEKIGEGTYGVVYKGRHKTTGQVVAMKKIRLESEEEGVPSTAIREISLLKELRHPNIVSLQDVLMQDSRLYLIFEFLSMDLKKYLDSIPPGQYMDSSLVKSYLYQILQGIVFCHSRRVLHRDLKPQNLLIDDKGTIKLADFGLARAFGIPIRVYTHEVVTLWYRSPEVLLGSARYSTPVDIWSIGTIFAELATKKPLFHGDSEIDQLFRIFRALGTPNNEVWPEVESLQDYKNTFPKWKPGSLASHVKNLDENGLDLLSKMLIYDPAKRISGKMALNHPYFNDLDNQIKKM
Cyclin-dependent kinase 7 (Homo sapiens), sequence (P50613 whole entry): as the sequence (P50613 whole entry) above

SMILES: CC(C)c1cnn2c3nc(nc12)N(CC1CCNCC1)CCCCCOc1cc(F)c(F)cc1CN3
Ki [1]: 4.4 nM | Ki [2]: 2.9 nM

SMILES: CC(C)c1cnn2c3nc(nc12)N(CC1CNC1)CCCCCOc1ccc(F)cc1CN3
EC50 [3]: 940 nM | half-life at 1 µM [4]: 15.2 min | Ki [2]: 1 nM

SMILES: CC(C)n1cnc2c3nc(nc21)N(CC1CNC1)CCCCCOc1cc(S(C)(=O)=O)ccc1CN3
clearance [5]: 159 mL/min/kg | half-life at 1 µM [6]: 46.2 min | Activity [7]: Active | EC50 [3]: 740 nM | Activity [8]: Active | half-life at 1 µM [4]: 6.3 min | inhibition [9]: Dose-Dependent Effect | Drug uptake [10]: Not Active | inhibition [11]: Dose-Dependent Effect | Ki [2]: 3.6 nM

SMILES: CC(C)c1cnn2c3nc(nc12)N(CC1CCNCC1)CCCCCOc1ccc(F)cc1CN3
Ki [1]: 2.5 nM | Ki [2]: 3.1 nM

SMILES: CC(C)c1cnn2c3nc(nc12)N(CC1CCOCC1)CCCCCOc1ccccc1CN3
Ki [2]: 426 nM

SMILES: CC(C)c1cnn2c3nc(nc12)N(CC1CNC1)CCCCCOc1cc(S(C)(=O)=O)ccc1CN3
inhibition [12]: Active | clearance [5]: 159 mL/min/kg | half-life at 1 µM [6]: 122 min | Activity [7]: Active | inhibition [13]: Active | inhibition [14]: Active | EC50 [3]: 310 nM | Activity [8]: Active | inhibition [15]: Active | inhibition [16]: Active | half-life at 1 µM [4]: 112 min | inhibition [9]: Dose-Dependent Effect | inhibition [17]: Active | Drug uptake [10]: Not Active | inhibition [18]: Active | inhibition [11]: Dose-Dependent Effect | Ki [2]: 1 nM | inhibition [19]: Active

SMILES: CC(C)c1cnn2c3nc(nc12)N(CC1CNC1)CCCCCOc1cc(C#N)ccc1CN3
Ki [2]: 35.8 nM

SMILES: CC(C)c1cnn2c3nc(nc12)N(CC1CCNCC1)CCCCCOc1ccc(C(F)(F)F)cc1CN3
Ki [2]: 92.3 nM

SMILES: CC(C)c1cnn2c3nc(nc12)N(CC1CNC1)CCCCCOc1ccc(C(F)(F)F)cc1CN3
Ki [2]: > 1000 nM

SMILES: CC(C)c1cnn2c3nc(nc12)N(CC1CCN(C)CC1)CCCCCOc1ccccc1CN3
Ki [20]: 16.3 nM | Ki [1]: 1 nM | Ki [21]: 60.2 nM | Ki [2]: 2.7 nM

SMILES: CC(C)c1cnn2c3nc(nc12)N(CC1CCNC1)CCCCCOc1ccccc1CN3 (configuration not stated)
Ki [1]: 3.6 nM | Ki [21]: 9.5 nM | Ki [2]: 1 nM

SMILES: CC(C)c1cnn2c3nc(nc12)N(C[C@@H]1CNC[C@H]1O)CCCCCOc1ccccc1CN3
Ki [1]: 0.9 nM | Ki [21]: 2.8 nM | Ki [2]: 0.7 nM

SMILES: CC(C)c1cnn2c3nc(nc12)N(CC1CNC1)CCCCCOc1cc(C(F)(F)F)ccc1CN3
Ki [2]: 15.4 nM

SMILES: CC(C)c1cnn2c3nc(nc12)N(CC1CCNCC1)CCCCCOc1cc(C(F)(F)F)ccc1CN3
Ki [20]: 43.3 nM | Ki [1]: 42.1 nM | Ki [21]: 161 nM | Ki [2]: 15.1 nM

Second part, the molecule after the results:

Ki [1]: 60.3 nM | Ki [2]: 49.6 nM
SMILES: CC(C)c1cnn2c3nc(nc12)N(CC(C)(C)CN)CCCCCOc1ccccc1CN3

Ki [2]: > 1000 nM
SMILES: CC(C)c1cnn2c3nc(nc12)N(CC1CNC1)CCCCCOc1ccc(C#N)cc1CN3

Ki [20]: 2.7 nM | Ki [1]: 2.4 nM | Ki [21]: 21.3 nM | Ki [2]: 4.9 nM
SMILES: CC(C)c1cnn2c3nc(nc12)N(CC1CCNCC1)CCCCCOc1cc(S(C)(=O)=O)ccc1CN3

Ki [2]: 158 nM
SMILES: CC(C)c1cnn2c3nc(nc12)N(C1CNC1)CCCCCOc1ccccc1CN3

Ki [1]: 28.7 nM | Ki [2]: 48.4 nM
SMILES: CC(C)c1cnn2c3nc(nc12)N(CCC1CNC1)CCCCCOc1ccccc1CN3

EC50 [3]: 1460 nM | half-life at 1 µM [4]: 22 min | Ki [2]: 3.4 nM
SMILES: CC(C)c1cnn2c3nc(nc12)N(CC1CNC1)CCCCCOc1cc(F)c(F)cc1CN3

Ki [20]: 5.8 nM | Ki [1]: 4.4 nM | Ki [21]: 43.4 nM | Ki [2]: 9.4 nM
SMILES: CC(C)c1cnn2c3nc(nc12)N(CC1CCNCC1)CCCCCOc1cc(C#N)ccc1CN3

Ki [2]: 83.2 nM
SMILES: CC(C)c1cnn2c3nc(nc12)N(CC1CCNCC1)CCCCCOc1ccc(S(C)(=O)=O)cc1CN3

Ki [1]: 140 nM | Ki [2]: 46.1 nM
SMILES: CC(C)c1cnn2c3nc(nc12)N(CC1CCCNC1)CCCCCOc1ccccc1CN3 (configuration not stated)

Ki [2]: 35.3 nM
SMILES: CC(C)c1cnn2c3nc(nc12)N(CCC1CNC1)CCCCCOc1cc(S(C)(=O)=O)ccc1CN3

Ki [20]: 60 nM | half-life at 1 µM [6]: 36.1 min | Ki [1]: 30.7 nM | EC50 [3]: 3400 nM | half-life at 1 µM [4]: 61.9 min | Ki [21]: 101 nM | Ki [2]: 3 nM
SMILES: CC(C)c1cnn2c3nc(nc12)N(CC1CNC1)CCCCCOc1ccccc1CN3
